We go through three compounds from publication PMC10751545 (Science (New York, N.Y.), 2023).

In one experiment the target is T1, GPR158-RGS7/Gβ5 complex (Homo sapiens, UniProt Q5T848).
T1 sequence (Q5T848 24-1215): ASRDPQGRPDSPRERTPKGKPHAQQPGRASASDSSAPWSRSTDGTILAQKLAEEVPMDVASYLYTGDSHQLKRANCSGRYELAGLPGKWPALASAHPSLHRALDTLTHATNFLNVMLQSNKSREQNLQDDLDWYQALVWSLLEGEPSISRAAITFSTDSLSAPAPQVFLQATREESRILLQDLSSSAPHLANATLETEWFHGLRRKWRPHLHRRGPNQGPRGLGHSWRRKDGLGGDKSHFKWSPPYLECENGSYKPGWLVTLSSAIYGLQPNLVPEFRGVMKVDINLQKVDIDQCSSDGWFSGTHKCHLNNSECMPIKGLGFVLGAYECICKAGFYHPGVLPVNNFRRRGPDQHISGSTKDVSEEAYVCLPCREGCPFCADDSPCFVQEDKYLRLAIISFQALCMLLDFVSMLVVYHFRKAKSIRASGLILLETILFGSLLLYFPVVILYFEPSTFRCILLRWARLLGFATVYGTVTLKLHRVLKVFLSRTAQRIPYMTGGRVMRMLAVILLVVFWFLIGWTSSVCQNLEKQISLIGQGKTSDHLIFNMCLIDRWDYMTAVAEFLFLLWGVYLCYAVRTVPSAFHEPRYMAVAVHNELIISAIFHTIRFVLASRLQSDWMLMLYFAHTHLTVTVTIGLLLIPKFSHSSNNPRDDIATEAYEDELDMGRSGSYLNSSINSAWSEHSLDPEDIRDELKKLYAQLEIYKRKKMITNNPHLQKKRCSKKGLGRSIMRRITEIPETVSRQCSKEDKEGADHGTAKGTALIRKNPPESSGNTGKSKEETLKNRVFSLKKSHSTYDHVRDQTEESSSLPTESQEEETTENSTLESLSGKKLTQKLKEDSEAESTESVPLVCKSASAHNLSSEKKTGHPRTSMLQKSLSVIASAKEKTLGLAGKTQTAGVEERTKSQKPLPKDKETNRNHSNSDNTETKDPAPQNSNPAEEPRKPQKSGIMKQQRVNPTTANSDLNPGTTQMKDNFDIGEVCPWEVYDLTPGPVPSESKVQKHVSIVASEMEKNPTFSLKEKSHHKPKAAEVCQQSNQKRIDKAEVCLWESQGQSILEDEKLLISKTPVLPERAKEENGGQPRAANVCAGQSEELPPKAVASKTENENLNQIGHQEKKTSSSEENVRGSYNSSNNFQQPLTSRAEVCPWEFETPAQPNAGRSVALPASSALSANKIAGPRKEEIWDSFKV
T1 sequence (P49802 1-495 partner): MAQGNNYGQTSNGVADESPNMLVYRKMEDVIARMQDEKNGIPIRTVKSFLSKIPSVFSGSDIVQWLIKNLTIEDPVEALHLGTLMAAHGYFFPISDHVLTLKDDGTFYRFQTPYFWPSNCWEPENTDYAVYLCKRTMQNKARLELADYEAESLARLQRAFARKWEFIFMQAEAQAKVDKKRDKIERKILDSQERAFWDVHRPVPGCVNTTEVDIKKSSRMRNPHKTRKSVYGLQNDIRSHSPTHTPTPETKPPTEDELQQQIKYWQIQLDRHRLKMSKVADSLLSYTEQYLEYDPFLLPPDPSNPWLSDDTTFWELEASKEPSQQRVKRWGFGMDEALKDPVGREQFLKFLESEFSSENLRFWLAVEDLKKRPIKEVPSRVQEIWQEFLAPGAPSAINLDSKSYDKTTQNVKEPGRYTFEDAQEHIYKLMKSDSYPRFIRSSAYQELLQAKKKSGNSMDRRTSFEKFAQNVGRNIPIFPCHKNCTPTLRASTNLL
T1 sequence (O14775 1-395 partner): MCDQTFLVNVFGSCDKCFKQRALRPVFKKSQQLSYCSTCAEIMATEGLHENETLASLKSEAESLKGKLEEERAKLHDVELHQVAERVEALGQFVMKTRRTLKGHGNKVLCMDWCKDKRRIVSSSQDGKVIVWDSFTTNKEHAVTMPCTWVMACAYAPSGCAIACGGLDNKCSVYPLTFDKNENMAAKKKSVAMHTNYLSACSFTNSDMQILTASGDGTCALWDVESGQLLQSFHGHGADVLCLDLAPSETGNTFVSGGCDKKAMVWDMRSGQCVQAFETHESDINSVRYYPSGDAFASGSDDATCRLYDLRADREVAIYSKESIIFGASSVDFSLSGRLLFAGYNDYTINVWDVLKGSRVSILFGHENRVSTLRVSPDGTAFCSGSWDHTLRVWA
Nature of the experiment: BRET-based GAP assay. The experiment is classed as cell-based.

The target in experiment [1] is T2, GPR158 (Homo sapiens, UniProt Q5T848).
T2 sequence (Q5T848 24-1215): T1 sequence (Q5T848 24-1215)
Nature of the experiment: G protein activation by GPR158. The following applies: any G proteins tested. Format: cell-based.

Experiment [2] relates to layer II-III neurons in the prelimbic cortex. Nature of the experiment: Slice electrophysiology, intrinsic excitability of cortical neurons. The experiment is classed as cell-based, mice.
For experiment [3], the target named is T2, GPR158. Nature of the experiment: Binding competition, displacement of [3H]-glycine bound to GPR158.
The target of experiment [4] is T2, GPR158. Nature of the experiment: BRET-based cAMP biosensor screen in HEK293 cells expressing GPR158. Format: cell-based. The following applies: for cAMP change in cells expressing GPR158 relative to non-transfected cells: BRET cAMP biosensor.
Experiment [5] deals with T2, GPR158.
In experiment [6] the test system is GPR158 R173A, E271A, and Y269A mutants.
Experiment [7] concerns the target T2, GPR158. This is another data set of the same source.
Experiment [8] has as its target T2, GPR158. The source holds these as a separate data set.

Where two headings read alike, the source gives them in different places.

Consider `NCCS(=O)(=O)O` [taurine], for which, on GPR158-RGS7/Gβ5 complex, the IC50 is ~6 µM. On GPR158 [1], the “activation of G proteins by GPR158” value is recorded as “no significant activation”. Further, the “excitability (neuronal firing) of layer II-III neurons” value in experiment [2] (taurine) is listed as “small effects on neuronal firing”. The IC50 on GPR158 [3] is ~6 µM. At GPR158 [3] (competition with [3H]-glycine), the “affinity relative to glycine” value is recorded as “two-fold lower affinity”. Moreover, on GPR158 [4], the “effect on GPR158-mediated suppression of cAMP compared directly with glycine” value is reported as “weaker than the effect of glycine” and the “cAMP change in cells expressing GPR158 relative to non-transfected cells” value is listed as “significant decrease in cAMP levels”.
Turning to `NCC(=O)O` [[^3H]-glycine, reference compound], the “binding to GPR158-expressing cells” value at GPR158 [5] (HEK293 cells expressing GPR158, across concentrations) was “significant binding”. In addition, in experiment [6], the “[3H]-glycine binding to mutants” value is on record as “near complete loss”.
In the case of `NCC(=O)O` [glycine], the “cAMP change in cells lacking GPR158” value on GPR158 [7] (U87 glioblastoma cells lacking GPR158, glycine 100μM) is recorded as “No glycine-induced changes in cAMP”. For the same compound, the “cAMP change in cells expressing GPR158” value at GPR158 [7] (U87 glioblastoma cells, 10μM forskolin, glycine 100μM) is on record as “cAMP decrease”. The “β-arrestin recruitment to GPR158” value at GPR158 [8] is “no significant response”. The Kd on GPR158 [5] (read-out: Kd of GPR158 for glycine, Scatchard analysis, membranes containing GPR158) was ~3 µM. Moreover, on GPR158-RGS7/Gβ5 complex (100μM), the “effect on Gαo deactivation, GPR158 co-expressed with RGS7/Gβ5” value was “significantly decelerated Gαo deactivation”. Also, the “effect on baseline or RGS7/Gβ5-assisted Gαo deactivation without GPR158” value on GPR158-RGS7/Gβ5 complex (cells without GPR158, 100μM) is given as “no effect”. On GPR158 [1], the “activation of G proteins by GPR158” value was “no significant activation”. Besides, the resting membrane potential result in [2] (layer II-III neurons) was “without changes”. The “amount of current necessary to elicit the first action potential (rheobase)” value in [2] (layer II-III neurons, glycine 1mM) is “decreasing”. Besides, the “number of action potentials” value in [2] (layer II-III neurons, glycine 1mM, synaptic blockade) is reported as “significantly increased”. In addition, the “intrinsic excitability of layer V neurons” value in experiment [2] (layer V neurons, which do not express GPR158) is “did not produce any changes”. In addition, the “excitability of layer II-III neurons in Gpr158 KO mice” value in [2] (prefrontal cortex, Gpr158 KO mice, glycine 1mM) was “failed to alter excitability”. Moreover, the IC50 at GPR158 [3] (read-out: IC50, displacement of [3H]-glycine bound to GPR158) was ~3 µM. Moreover, the “cAMP change in cells expressing GPR158 relative to non-transfected cells” value on GPR158 [4] is on record as “significant decrease in cAMP”.
